Results taken from patent US20240116985A1, “STAPLED PEPTIDES AND METHODS THEREOF” (priority 2020, published 2024).
≈ marks a conversion by molar mass, not a printed value. Like-named read-outs stand apart in the source and are kept apart here.

Columns and labels:
Solubility in PBS = assay type: physicochemical
Procedure, shortened: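 Solubility is derived from HPLC peak areas: the ratio of the PBS supernatant peak to a 50 μM DMSO peptide peak, times 50 uM.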

CHI Log D procedure = assay type: physicochemical; details: for chromatographic logD: pH 7.4, CHI Log D; for CHI Log D: pH 7.4
[1] = biological target: T1, full-length beta-Catenin (Uniprot ID P35222) (Homo sapiens, UniProt P35222); assay: Fluorescence polarization IC50 (beta-catenin / 5FAM-TCF4 10-53 competition); assay type: binding
T1 construct: 10 nM full-length beta-Catenin (Uniprot ID P35222)
T1 sequence (P35222 1-781): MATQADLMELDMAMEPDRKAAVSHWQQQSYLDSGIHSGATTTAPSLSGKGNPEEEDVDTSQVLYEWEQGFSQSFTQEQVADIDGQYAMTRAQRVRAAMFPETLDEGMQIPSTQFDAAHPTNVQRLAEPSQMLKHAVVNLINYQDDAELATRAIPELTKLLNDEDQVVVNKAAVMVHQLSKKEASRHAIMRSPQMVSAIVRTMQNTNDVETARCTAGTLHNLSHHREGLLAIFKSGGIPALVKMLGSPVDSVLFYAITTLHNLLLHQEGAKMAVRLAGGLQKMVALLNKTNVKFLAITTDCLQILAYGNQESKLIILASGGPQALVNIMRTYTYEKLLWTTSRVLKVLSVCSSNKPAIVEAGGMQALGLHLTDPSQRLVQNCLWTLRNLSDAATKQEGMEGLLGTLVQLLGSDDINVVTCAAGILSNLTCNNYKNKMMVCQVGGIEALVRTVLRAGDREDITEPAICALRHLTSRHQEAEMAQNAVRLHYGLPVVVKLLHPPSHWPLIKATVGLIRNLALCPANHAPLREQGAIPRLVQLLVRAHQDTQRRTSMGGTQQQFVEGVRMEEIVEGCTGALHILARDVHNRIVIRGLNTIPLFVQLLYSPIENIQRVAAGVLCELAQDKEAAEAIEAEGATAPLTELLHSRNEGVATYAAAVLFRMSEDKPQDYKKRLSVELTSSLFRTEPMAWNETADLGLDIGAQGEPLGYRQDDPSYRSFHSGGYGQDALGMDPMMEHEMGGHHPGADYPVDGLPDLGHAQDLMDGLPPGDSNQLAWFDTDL

[2] = fluorescence polarization, read-out: beta-Catenin FP IC50

Compound | Solubility (Solubility in PBS) [µM] | chromatographic logD (CHI Log D procedure) | IC50 [1, 2] [nM] | CHI Log D (CHI Log D procedure) | IC50 ([1]; read-out: FP EC50) [nM] | Solubility (Solubility in PBS; Solubility (uM)) [µM]
CC(=O)N1CCC[C@]12CC=CCCCC1(CCCC=CCCCCCC[C@@](C)(C(=O)N[C@@H](Cc3ccccc3C(N)=O)C(=O)N[C@@H](Cc3csc4ccccc34)C(=O)N[C@@H](Cc3c[nH]cn3)C(N)=O)NC(=O)[C@H](CC(N)=O)NC(=O)[C@H](Cc3ccccc3)NC(=O)[C@H](C)NC(=O)[C@H](C)NC(=O)[C@H](CCC(=O)O)NC(=O)[C@H](CC(=O)O)NC1=O)NC(=O)[C@H](C)NC(=O)[C@H](CC(=O)O)NC2=O (stereo partly drawn) [I-513, Ac-PL3-Asp-Ala-B5-Asp-Glu-Ala-Ala-Phe-Asn-S8-2CBMF-BztA-His-NH2] | 50 (≈ 94 µg/mL) | 1.57 | 143 | – | – | –
CC(=O)N1CCC[C@]12CC=CCCCC1(CCCC=CCCCCCC[C@@](C)(C(=O)N[C@@H](Cc3ccsc3)C(=O)N[C@@H](Cc3csc4ccccc34)C(=O)N[C@@H](Cc3c[nH]cn3)C(N)=O)NC(=O)[C@H](CC(N)=O)NC(=O)[C@H](Cc3ccccc3)NC(=O)[C@H](C)NC(=O)[C@H](C)NC(=O)[C@H](CCC(=O)O)NC(=O)[C@H](CC(=O)O)NC1=O)NC(=O)[C@H](C)NC(=O)[C@H](CC(=O)O)NC2=O (stereo partly drawn) [I-515, Ac-PL3-Asp-Ala-B5-Asp-Glu-Ala-Ala-Phe-Asn-S8-3Thi-BztA-His-NH2] | 46 (≈ 84.7 µg/mL) | – | 54 | 2.028 | 54 | –
CC(=O)N1CCC[C@]12CC=CCCCC1(CCCC=CCCCCCC[C@@](C)(C(=O)N[C@@H](Cc3ccsc3)C(=O)N[C@@H](Cc3csc4ccccc34)C(=O)N[C@@H](Cc3c[nH]cn3)C(N)=O)NC(=O)[C@H](CC(N)=O)NC(=O)[C@H](Cc3ccccc3)NC(=O)[C@H](C)NC(=O)[C@H](C)NC(=O)[C@H](CCC(=O)O)NC(=O)[C@H](CC(=O)O)NC1=O)NC(=O)[C@H](C)NC(=O)[C@H](CC(=O)O)NC2=O (stereo partly drawn) [I-516, Ac-PL3-Asp-Ala-B5-Asp-Glu-Ala-Ala-Phe-Asn-S8-3Thi-BztA-His-NH2] | 42 (≈ 77.4 µg/mL) | – | 23 | 2.072 | 23 | –
CC(=O)N1CCC[C@]12CC=CCCCC1(CCCC=CCCCCCC[C@@](C)(C(=O)N[C@@H](Cc3ccsc3)C(=O)N[C@@H](Cc3csc4ccccc34)C(=O)N[C@@H](CCC(N)=O)C(N)=O)NC(=O)[C@H](CC(N)=O)NC(=O)[C@H](Cc3ccccc3)NC(=O)[C@H](C)NC(=O)[C@H](C)NC(=O)[C@H](CCC(=O)O)NC(=O)[C@H](CC(=O)O)NC1=O)NC(=O)[C@H](C)NC(=O)[C@H](CC(=O)O)NC2=O (stereo partly drawn) [I-518, Ac-PL3-Asp-Ala-B5-Asp-Glu-Ala-Ala-Phe-Asn-S8-3Thi-BztA-Gln-NH2] | 39 (≈ 71.5 µg/mL) | – | 143 | 1.966 | 143 | –
CC[C@H](C)[C@@H]1NC(=O)[C@H](CC(=O)O)NC(=O)[C@]2(CC=CCCCC3(CCCC=CCCCCCC[C@@](C)(C(=O)N[C@@H](Cc4ccsc4)C(=O)N[C@@H](Cc4csc5ccccc45)C(=O)N[C@@H](CCC(N)=O)C(N)=O)NC(=O)[C@H](CC(N)=O)NC(=O)[C@H](Cc4ccccc4)NC(=O)[C@H](C)NC(=O)[C@H](C)NC(=O)[C@H](CCC(=O)O)NC(=O)[C@H](CC(=O)O)NC3=O)NC1=O)CCCN2C(C)=O (stereo partly drawn) [I-520, Ac-PL3-Asp-Ile-B5-Asp-Glu-Ala-Ala-Phe-Asn-S8-3Thi-BztA-Gln-NH2] | 50 (≈ 93.8 µg/mL) | – | 45 | 2.313 | 45 | –
CCC[C@@H]1NC(=O)[C@H](CC(=O)O)NC(=O)[C@]2(CC=CCCCC3(CCCC=CCCCCCC[C@@](C)(C(=O)N[C@@H](Cc4ccccc4)C(=O)N[C@@H](Cc4csc5ccccc45)C(=O)N[C@@H](CCC(N)=O)C(N)=O)NC(=O)[C@H](CCC(N)=O)NC(=O)[C@H](Cc4ccccc4)NC(=O)[C@H](C)NC(=O)[C@H](C)NC(=O)[C@H](CCC(=O)O)NC(=O)[C@H](CC(=O)O)NC3=O)NC1=O)CCCN2C(C)=O (stereo partly drawn) [I-522, Ac-PL3-Asp-Nva-B5-Asp-Glu-Ala-Ala-Phe-Gln-S8-Phe-BztA-Gln-NH2] | 50 (≈ 93.5 µg/mL) | – | 75 | 2.214 | 75 | –
CCC[C@@H]1NC(=O)[C@H](CC(=O)O)NC(=O)[C@]2(CC=CCCCC3(CCCC=CCCCCCC[C@@](C)(C(=O)N[C@@H](Cc4ccccc4)C(=O)N[C@@H](Cc4csc5ccccc45)C(=O)N[C@@H](CCC(N)=O)C(N)=O)NC(=O)[C@H](CCC(N)=O)NC(=O)[C@H](Cc4ccccc4)NC(=O)[C@H](C)NC(=O)[C@H](C)NC(=O)[C@H](CCC(=O)O)NC(=O)[C@H](CC(=O)O)NC3=O)NC1=O)CCCN2C(C)=O (stereo partly drawn) [I-523, Ac-PL3-Asp-Nva-B5-Asp-Glu-Ala-Ala-Phe-Gln-S8-Phe-BztA-Gln-NH2] | 50 (≈ 93.5 µg/mL) | – | 44 | 2.241 | 44 | –
CC(=O)N1CCC[C@]12CC=CCCCC1(CCCC=CCCCCCC[C@@](C)(C(=O)N[C@@H](Cc3ccccc3)C(=O)N[C@@H](Cc3csc4ccccc34)C(=O)N[C@@H](CCC(N)=O)C(N)=O)NC(=O)[C@H](CC(N)=O)NC(=O)[C@H](Cc3cscn3)NC(=O)[C@H](C)NC(=O)[C@H](C)NC(=O)[C@H](CCC(=O)O)NC(=O)[C@H](CC(=O)O)NC1=O)NC(=O)[C@H](C)NC(=O)[C@H](CC(=O)O)NC2=O (stereo partly drawn) [I-524, Ac-PL3-Asp-Ala-B5-Asp-Glu-Ala-Ala-4Thz-Asn-S8-Phe-BztA-Gln-NH2] | 50 (≈ 91.7 µg/mL) | 1.89 | 2550 | – | – | –

Second part, the compound after the results:

Solubility (Solubility in PBS) [µM] | chromatographic logD (CHI Log D procedure) | IC50 [1, 2] [nM] | CHI Log D (CHI Log D procedure) | IC50 ([1]; read-out: FP EC50) [nM] | Solubility (Solubility in PBS; Solubility (uM)) [µM] | Compound
– | 2.29 | 155 | – | – | 44 (≈ 81.9 µg/mL) | CC(=O)N1CCC[C@]12CC=CCCCC1(CCCC=CCCCCCC[C@@](C)(C(=O)N[C@@H](Cc3ccccc3)C(=O)N[C@@H](Cc3csc4ccccc34)C(=O)N[C@@H](CCC(N)=O)C(N)=O)NC(=O)[C@H](CC(N)=O)NC(=O)[C@H](Cc3ccccc3)NC(=O)[C@H](C)NC(=O)[C@H](C)NC(=O)[C@H](CNS(C)(=O)=O)NC(=O)[C@H](CC(=O)O)NC1=O)NC(=O)[C@H](C)NC(=O)[C@H](CC(=O)O)NC2=O (stereo partly drawn) [I-533, Ac-PL3-Asp-Ala-B5-Asp-[MeSO2]Dap-Ala-Ala-Phe-Asn-S8-Phe-BztA-Gln-NH2]
– | 2.43 | 5000 | – | – | 31 (≈ 58.2 µg/mL) | CC(=O)N1CCC[C@]12CC=CCCCC1(CCCC=CCCCCCC[C@@](C)(C(=O)N[C@@H](Cc3ccccc3)C(=O)N[C@@H](Cc3csc4ccccc34)C(=O)N[C@@H](CCC(N)=O)C(N)=O)NC(=O)[C@H](CC(N)=O)NC(=O)[C@H](Cc3ccccc3)NC(=O)[C@H](C)NC(=O)[C@H](C)NC(=O)[C@H](CCC(=O)O)NC(=O)[C@H](CC(=O)O)NC1=O)NC(=O)[C@H](C)NC(=O)[C@H](CNS(C)(=O)=O)NC2=O (stereo partly drawn) [I-534, Ac-PL3-[MeSO2]Dap-Ala-B5-Asp-Glu-Ala-Ala-Phe-Asn-S8-Phe-BztA-Gln-NH2]
– | 2.86 | 5000 | – | – | 47 (≈ 86.4 µg/mL) | CC(=O)N1CCC[C@]12CC=CCCCC1(CCCC=CCCCCCC[C@@](C)(C(=O)N[C@@H](Cc3ccccc3)C(=O)N[C@@H](Cc3csc4ccccc34)C(=O)N[C@@H](CCC(N)=O)C(N)=O)NC(=O)[C@H](C(C)C)NC(=O)[C@H](Cc3ccccc3)NC(=O)[C@H](C)NC(=O)[C@H](C)NC(=O)[C@H](CC(=O)O)NC(=O)[C@H](CC(=O)NC(C)C)NC1=O)NC(=O)[C@H](C)NC(=O)[C@H](CC(=O)O)NC2=O (stereo partly drawn) [I-535, Ac-PL3-Asp-Ala-B5-[NHiPr]AsnR-Asp-Ala-Ala-Phe-Val-S8-Phe-BztA-Gln-NH2]
